Measurements reported in publication PMC8900816, “High-resolution structures of the bound effectors avadomide (CC-122) and iberdomide (CC-220) highlight advantages and limitations of the MsCI4 soaking system” (Acta Crystallographica. Section D, Structural Biology, 2022).

Target: T1, MsCI4 (Magnetospirillum gryphiswaldense, UniProt A4TVL0)
T1 construct: gene MGR_0879; wild-type single-domain bacterial cereblon homologue; pETHis1a, E. coli C41(DE3); His tag removed with TEV; three monomers per asymmetric unit; structural zinc; RED-NHS amine-labelled for MST
T1 sequence (A4TVL0 1-124): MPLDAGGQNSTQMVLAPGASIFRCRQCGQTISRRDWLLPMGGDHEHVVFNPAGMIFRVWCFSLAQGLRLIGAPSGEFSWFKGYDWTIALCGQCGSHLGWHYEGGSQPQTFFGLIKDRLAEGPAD
Experiment: labelled microscale thermophoresis
Type: binding
Details: read-out: MsCI4 (K d, μM) / Labelled MST

Compound	Kd
Cc1nc2cccc(N)c2c(=O)n1[C@H]1CCC(=O)NC1=O [Avadomide]	4.84 ± 0.3 µM
O=C1CC[C@H](N2Cc3c(OCc4ccc(CN5CCOCC5)cc4)cccc3C2=O)C(=O)N1 [Iberdomide]	0.409 ± 0.03 µM
